These results are taken from ChEMBL document CHEMBL1145489, “Isoniazid induces its own resistance in nonreplicating Mycobacterium tuberculosis” (Antimicrob Agents Chemother, 2007).

Data set [1] has as its system Mycobacterium tuberculosis. The data set is described as follows: Antimicrobial activity against Mycobacterium tuberculosis H37Rv at 0.1 ug/ml after 3 weeks by […] method. It is filed as functional.
Data set [2] concerns Mycobacterium tuberculosis. The data set is described as follows: Antimicrobial activity against Mycobacterium tuberculosis TB7 isolate at 0.4 ug/ml after 3 weeks. It is filed as functional.
Data set [3] concerns Mycobacterium tuberculosis. The data set is described as follows: Antimicrobial activity against Mycobacterium tuberculosis TB7 isolate at 0.1 ug/ml after 3 weeks. It is filed as functional.
The subject of data set [4] is Mycobacterium tuberculosis. As to the kind of experiment: Antimicrobial activity against Mycobacterium tuberculosis TB19 isolate at 0.4 ug/ml after 1 week. It is filed as functional.
For data set [5], the system named is Mycobacterium tuberculosis. As to the kind of experiment: Antimicrobial activity against Mycobacterium tuberculosis TB7 isolate at 0.4 ug/ml after 1 week. It is filed as functional.
Data set [6] relates to Mycobacterium tuberculosis. As to the kind of experiment: Antimicrobial activity against Mycobacterium tuberculosis H37Rv at 0.1 ug/ml after 2 weeks by […] method. It is filed as functional.
For data set [7], the system named is Mycobacterium tuberculosis. As to the kind of experiment: Antimicrobial activity against Mycobacterium tuberculosis TB20 isolate at 0.4 ug/ml after 4 weeks. It is filed as functional.
Data set [8] relates to Mycobacterium tuberculosis. As to the kind of experiment: Antimicrobial activity against Mycobacterium tuberculosis H37Rv at 0.4 ug/ml after 1 week by […] method. It is filed as functional.
For data set [9], the system named is Mycobacterium tuberculosis. The data set is described as follows: Antimicrobial activity against Mycobacterium tuberculosis TB7 isolate at 0.1 ug/ml after 1 week. It is filed as functional.
The subject of data set [10] is Mycobacterium tuberculosis. The data set is described as follows: Antimicrobial activity against Mycobacterium tuberculosis H37Rv at 0.4 ug/ml after 2 weeks by […] method. It is filed as functional.
For data set [11], the system named is Mycobacterium tuberculosis. As to the kind of experiment: Antimicrobial activity against Mycobacterium tuberculosis TB20 isolate at 0.4 ug/ml after 2 weeks. It is filed as functional.
Data set [12] relates to Mycobacterium tuberculosis. The data set is described as follows: Antimicrobial activity against Mycobacterium tuberculosis H37Rv at 0.1 ug/ml after 1 week by […] method. It is filed as functional.
Data set [13] deals with Mycobacterium tuberculosis. As to the kind of experiment: Antimicrobial activity against Mycobacterium tuberculosis H37Rv at 0.4 ug/ml after 4 weeks by […] method. It is filed as functional.
The subject of data set [14] is Mycobacterium tuberculosis. The data set is described as follows: Antimicrobial activity against Mycobacterium tuberculosis TB7 isolate at 0.4 ug/ml after 4 weeks. It is filed as functional.
The subject of data set [15] is Mycobacterium tuberculosis. The data set is described as follows: Antimicrobial activity against Mycobacterium tuberculosis TB19 isolate at 0.1 ug/ml after 4 weeks. It is filed as functional.
Data set [16] is described as follows: Stability in BACTEC medium at 37 degC upto 4 weeks. It is filed as physicochemical. The settings on record: 672 h.
Data set [17] deals with Mycobacterium tuberculosis. As to the kind of experiment: Antimicrobial activity against Mycobacterium tuberculosis H37Rv at 0.1 ug/ml after 4 weeks by […] method. It is filed as functional.
Data set [18] concerns Mycobacterium tuberculosis. The data set is described as follows: Antimicrobial activity against Mycobacterium tuberculosis TB20 isolate at 0.1 ug/ml after 4 weeks. It is filed as functional.
Data set [19] has as its system Mycobacterium tuberculosis. The data set is described as follows: Antimicrobial activity against Mycobacterium tuberculosis TB20 isolate at 0.1 ug/ml after 1 week. It is filed as functional.
Data set [20] has as its system Mycobacterium tuberculosis. The data set is described as follows: Antimicrobial activity against Mycobacterium tuberculosis TB20 isolate at 0.1 ug/ml after 3 weeks. It is filed as functional.
Data set [21] relates to Mycobacterium tuberculosis. As to the kind of experiment: Antimicrobial activity against Mycobacterium tuberculosis TB19 isolate at 0.1 ug/ml after 3 weeks. It is filed as functional.
Data set [22] deals with Mycobacterium tuberculosis. The data set is described as follows: Antimicrobial activity against Mycobacterium tuberculosis TB7 isolate at 0.1 ug/ml after 4 weeks. It is filed as functional.
Data set [23] concerns Mycobacterium tuberculosis. The data set is described as follows: Antimicrobial activity against Mycobacterium tuberculosis H37Rv at 0.4 ug/ml after 3 weeks by […] method. It is filed as functional.
Data set [24] deals with Mycobacterium tuberculosis. As to the kind of experiment: Antimicrobial activity against Mycobacterium tuberculosis TB19 isolate at 0.4 ug/ml after 3 weeks. It is filed as functional.
Data set [25] has as its system Mycobacterium tuberculosis. As to the kind of experiment: Antimicrobial activity against Mycobacterium tuberculosis TB7 isolate at 0.1 ug/ml after 2 weeks. It is filed as functional.
In data set [26] the test system is Mycobacterium tuberculosis. As to the kind of experiment: Antimicrobial activity against Mycobacterium tuberculosis TB19 isolate at 0.4 ug/ml after 4 weeks. It is filed as functional.
Data set [27] concerns Mycobacterium tuberculosis. The data set is described as follows: Antimicrobial activity against Mycobacterium tuberculosis TB20 isolate at 0.4 ug/ml after 1 week. It is filed as functional.
In data set [28] the test system is Mycobacterium tuberculosis. As to the kind of experiment: Antimicrobial activity against Mycobacterium tuberculosis TB19 isolate at 0.4 ug/ml after 2 weeks. It is filed as functional.
Data set [29] concerns Mycobacterium tuberculosis. The data set is described as follows: Antimicrobial activity against Mycobacterium tuberculosis TB19 isolate at 0.1 ug/ml after 1 week. It is filed as functional.
Data set [30] deals with Mycobacterium tuberculosis. As to the kind of experiment: Antimicrobial activity against Mycobacterium tuberculosis TB7 isolate at 0.4 ug/ml after 2 weeks. It is filed as functional.
Data set [31] deals with Mycobacterium tuberculosis. As to the kind of experiment: Antimicrobial activity against Mycobacterium tuberculosis TB19 isolate at 0.1 ug/ml after 2 weeks. It is filed as functional.
The subject of data set [32] is Mycobacterium tuberculosis. The data set is described as follows: Antimicrobial activity against Mycobacterium tuberculosis TB20 isolate at 0.1 ug/ml after 2 weeks. It is filed as functional.
Data set [33] concerns Mycobacterium tuberculosis. The data set is described as follows: Antimicrobial activity against Mycobacterium tuberculosis TB20 isolate at 0.4 ug/ml after 3 weeks. It is filed as functional.
In data set [34] the test system is Mycobacterium tuberculosis. As to the kind of experiment: Antimicrobial activity against Mycobacterium tuberculosis H37Rv at 2 ug/ml after 1 week by […] method. It is filed as functional.
Data set [35] has as its system Mycobacterium tuberculosis. As to the kind of experiment: Antimicrobial activity against Mycobacterium tuberculosis H37Rv at 2 ug/ml after 2 weeks by […] method. It is filed as functional.
Data set [36] deals with Mycobacterium tuberculosis. The data set is described as follows: Antimicrobial activity against Mycobacterium tuberculosis H37Rv at 2 ug/ml after 3 weeks at by […] method. It is filed as functional.
The test system of data set [37] is Mycobacterium tuberculosis. As to the kind of experiment: Antimicrobial activity against Mycobacterium tuberculosis H37Rv at 2 ug/ml after 4 weeks by […] method. It is filed as functional.

Turning to `NNC(=O)c1ccncc1` [ISONIAZID], the CFU in [1] is 2.4 10^4/ml; in data set [2], 1.2 10^4/ml; in data set [3], 2.5 10^4/ml; in data set [4] it was 0 mL⁻¹; in data set [5], 0 mL⁻¹; in [6], 3.1 10^3/ml. For the same molecule, the CFU in [7] was 8 10^4/ml; in data set [8] it was 55 mL⁻¹; in [9] it was 1.7 10^5/ml; in data set [10] it was 3.6 10^3/ml; in data set [11] it was 1.3 10^4/ml; in data set [12], 1.2 10^3/ml. Further, the CFU in data set [13] was 1.32 10^4/ml; in data set [14] it was 1.1 10^5/ml; in data set [15], 7 10^3/ml; in data set [17], 1.22 10^5/ml; in data set [18], 2.5 10^4/ml; in data set [19], 2.4 10^2/ml. Also, the CFU in data set [20] is recorded as 1.6 10^4/ml; in data set [21], 4.8 10^3/ml; in data set [22], 7.9 10^4/ml; in data set [23], 1.45 10^4/ml; in data set [24] it was 3.4 10^4/ml; in [25], 7.6 10^3/ml. The CFU in data set [26] was 4.8 10^4/ml; in data set [27], 40 mL⁻¹; in [28], 2 10^2/ml; in data set [29], 25 mL⁻¹; in [30], 5.6 10^2/ml; in data set [31] it was 1.1 10^3/ml. For the same molecule, the CFU in data set [32] is listed as 1.4 10^4/ml; in data set [33], 7.5 10^4/ml. Further, the Stability entry in [16] was “Stable”.
Regarding `CO[C@H]1/C=C/O[C@@]2(C)Oc3c(C)c(O)c4c(O)c(c(/C=N/N5CCN(C)CC5)c(O)c4c3C2=O)NC(=O)/C(C)=C\C=C\[C@H](C)[C@H](O)[C@@H](C)[C@@H](O)[C@@H](C)[C@H](OC(C)=O)[C@@H]1C` [RIFAMPIN], the CFU in data set [34], in data set [35], in data set [36] and in [37] was 0 mL⁻¹ throughout.
